US20240246964A1 (Arbutus Biopharma Corporation, priority 2021, published 2024)

Key:
[1] = biological target: PD-L1 His protein / PD-1 Fc protein (Homo sapiens (Human), UniProt Q9NZQ7); experiment: HTRF Assay (PD-1/PD-L1 interaction); type: binding; conditions: PD-L1 His 6 nM, PD-1 Fc 6 nM
[2] = biological target: human PD-L1 (Homo sapiens (Human), UniProt Q9NZQ7); experiment: T cell activation luciferase reporter cell culture system (T Cell Activation Assay); type: cell-based; conditions: luciferase reporter assay; PD-L1 aAPC/CHO-K1 cells with PD-1 effector Jurkat T cells
Sequence of human PD-L1 (Q9NZQ7 19-290): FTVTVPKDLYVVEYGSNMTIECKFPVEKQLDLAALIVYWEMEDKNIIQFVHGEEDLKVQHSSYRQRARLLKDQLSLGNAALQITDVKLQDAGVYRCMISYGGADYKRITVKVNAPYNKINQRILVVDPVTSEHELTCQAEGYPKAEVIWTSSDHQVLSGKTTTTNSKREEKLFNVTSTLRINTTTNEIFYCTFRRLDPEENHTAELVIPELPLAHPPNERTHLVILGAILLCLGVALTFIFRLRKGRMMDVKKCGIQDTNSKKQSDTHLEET

Sequence of PD-L1 His protein / PD-1 Fc protein (Q9NZQ7 19-238): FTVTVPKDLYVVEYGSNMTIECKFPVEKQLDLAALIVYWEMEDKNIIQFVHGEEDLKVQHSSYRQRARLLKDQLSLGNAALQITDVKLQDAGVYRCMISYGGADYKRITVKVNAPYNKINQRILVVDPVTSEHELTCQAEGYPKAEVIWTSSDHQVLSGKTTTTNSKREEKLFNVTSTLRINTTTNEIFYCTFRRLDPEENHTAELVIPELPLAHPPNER

| SMILES | IC50 [1] | EC50 [2] |
| --- | --- | --- |
| COc1nc(-c2cccc(-c3ccnc(-c4cc(Cl)c5c(c4)CCN(CCC(C)(C)O)C5)c3Cl)c2Cl)ccc1CNC[C@@H]1CCC(=O)N1 [Compound 208, (S)-5-((((6-(2-chloro-3-(3-chloro-2-(8-chloro-2-(3-hydroxy-3-methylbutyl)-1,2,3,4-tetrahydroisoquinolin-6-yl)pyridin-4-yl)phenyl)-2-methoxypyridin-3-yl)methyl)amino)methyl)pyrrolidin-2-one] | 0.00805 µM | 0.082 µM |
| COc1cc(-c2nccc(-c3cccc(-c4ccc5c(CNCC(C)(C)O)cn(C)c5n4)c3Cl)c2Cl)ccc1CNC[C@@H]1CCC(=O)N1 [Compound 99, (S)-5-(((4-(3-chloro-4-(2-chloro-3-(3-(((2-hydroxy-2-methylpropyl)amino)methyl)-1-methyl-1H-pyrrolo[2,3-b]pyridin-6-yl)phenyl)pyridin-2-yl)-2-methoxybenzyl)amino)methyl)pyrrolidin-2-one] | 0.0007 µM | 0.0478 µM |
| COc1nc(-c2ccnc(-c3cccc4c3CC[C@@H]4Oc3nc(OC)c(CNC[C@H](C)O)cc3C(F)(F)F)c2Cl)ccc1CNC[C@@H]1CCC(=O)N1 [Compound 128, (S)-5-((((3′-chloro-2′-((S)-1-((5-((((S)-2-hydroxypropyl)amino)methyl)-6-methoxy-3-(trifluoromethyl)pyridin-2-yl)oxy)-2,3-dihydro-1H-inden-4-yl)-6-methoxy-[2,4′-bipyridin]-5-yl)methyl)amino)methyl)pyrrolidin-2-one] | 0.000542 µM | 0.00911 µM |
| COc1cc(-c2nccc(-c3cccc4c3CC[C@@H]4Oc3nc(OC)c(CN4CC5(CNC(=O)C5)C4)cc3C(F)(F)F)c2Cl)ccc1CN1CC2(CNC(=O)C2)C1 [Example 292, (S)-2-(4-(3-chloro-4-(1-((6-methoxy-5-((7-oxo-2,6-diazaspiro[3.4]octan-2-yl)methyl)-3-(trifluoromethyl)pyridin-2-yl)oxy)-2,3-dihydro-1H-inden-4-yl)pyridin-2-yl)-2-methoxybenzyl)-2,6-diazaspiro[3.4]octan-7-one] | 0.0044 µM | 0.388 µM |
| COc1nc(-c2cccc(-c3ccnc(-c4ccc5c(c4)CN(CCNC[C@@H]4CCC(=O)N4)C5=O)c3Cl)c2Cl)ccc1CNC[C@@H]1CCC(=O)N1 [Compound 66, 5-(3-chloro-4-(2-chloro-3-(6-methoxy-5-(((((S)-5-oxopyrrolidin-2-yl)methyl)amino)methyl)pyridin-2-yl)phenyl)pyridin-2-yl)-2-(2-((((S)-5-oxopyrrolidin-2-yl)methyl)amino)ethyl)isoindolin-1-one] | 0.0006 µM | 0.158 µM |
| COc1cc(-c2nccc(-c3cccc(-c4ccc(CNC5CCN(C(C)=O)CC5)c(OC)n4)c3Cl)c2Cl)ccc1CN1CCOCC1 [Example 458, 1-(4-(((6-(2-Chloro-3-(3-chloro-2-(3-methoxy-4-(morpholinomethyl)phenyl)pyridin-4-yl)phenyl)-2-methoxypyridin-3-yl)methyl)amino)piperidin-1-yl)ethan-1-one] | 0.0246 µM | 0.0826 µM |
| COc1nc(-c2cccc(-c3ccnc(-c4ccc5c(c4)CN(CCNC[C@@H]4CCC(=O)N4)C5=O)c3Cl)c2Cl)cc(F)c1CNC[C@@H]1CCC(=O)N1 [Compound 178, 5-(3-chloro-4-(2-chloro-3-(4-fluoro-6-methoxy-5-(((((S)-5-oxopyrrolidin-2-yl)methyl)amino)methyl)pyridine-2-yl)phenyl)pyridine-2-yl)-2-(2-((((S)-5-oxopyrrolidin-2-yl)methyl)amino)ethyl)isoindolin-1-one] | 0.00125 µM | 0.144 µM |
| COc1cc(-c2nccc(-c3cccc(-c4ccc(CNC5CCN(C(=O)c6ccco6)CC5)c(OC)n4)c3Cl)c2Cl)ccc1CNC1CCN(C(=O)c2ccco2)CC1 [Example 421, (4-(((6-(2-Chloro-3-(3-chloro-2-(4-(((1-(furan-2-carbonyl)piperidin-4-yl)amino)methyl)-3-methoxyphenyl)pyridin-4-yl)phenyl)-2-methoxypyridin-3-yl)methyl)amino)piperidin-1-yl)(furan-2-yl)methanone] | 0.00186 µM | 0.0477 µM |
| COc1cc(-c2nccc(-c3ccnc(-c4ccc5c(CNC[C@@H]6CCC(=O)N6)cn(C)c5c4)c3Cl)c2Cl)ccc1CNC[C@@H]1CCC(=O)N1 [Compound 14, (S)-5-(((4-(3,3′-dichloro-2′-(1-methyl-3-(((((S)-5-oxopyrrolidin-2-yl)methyl)amino)methyl)-1H-indol-6-yl)-[4,4′-bipyridin]-2-yl)-2-methoxybenzyl)amino)methyl)pyrrolidin-2-one] | 0.0006 µM | 0.165 µM |
| COc1cc(-c2nccc(-c3cccc(-c4ccc(CN5CC(C(C)(C)O)C5)c(OC)n4)c3Cl)c2Cl)ccc1CN1CC(C(C)(C)O)C1 [Example 471, 2-(1-((6-(2-Chloro-3-(3-chloro-2-(4-((3-(2-hydroxypropan-2-yl)azetidin-1-yl)methyl)-3-methoxyphenyl)pyridin-4-yl)phenyl)-2-methoxypyridin-3-yl)methyl)azetidin-3-yl)propan-2-ol] | 0.00463 µM | 0.111 µM |
| COc1nc(-c2cccc(-c3ccnc(-c4ccc5c(c4)CNC5)c3Cl)c2Cl)ccc1CNC1CCN(C(C)=O)CC1 [Compound 162, 1-(4-(((6-(2-chloro-3-(3-chloro-2-(isoindolin-5-yl)pyridine-4-yl)phenyl)-2-methoxypyridin-3-yl)methyl)amino)piperidin-1-yl)ethan-1-one] | 0.00078 µM | 5.16 µM |
| COc1nc(-c2cccc(-c3ccnc(-c4ccc5c(CN(C)CCO)nn(C)c5c4)c3Cl)c2Cl)ccc1CNC[C@@H]1CCC(=O)N1 [Example 247, (S)-5-((((6-(2-Chloro-3-(3-chloro-2-(3-(((2-hydroxyethyl)(methyl)amino)methyl)-1-methyl-1H-indazol-6-yl)pyridin-4-yl)phenyl)-2-methoxypyridin-3-yl)methyl)amino)methyl)pyrrolidin-2-one] | 0.00674 µM | 0.0524 µM |
| COc1cc(-c2nccc(-c3cccc(-c4ccc5c(CNC6CCN(C(C)=O)CC6)cn(C)c5n4)c3Cl)c2Cl)ccc1CN1CC2(C1)CN(C(C)=O)C2 [Compound 564, 1-(4-(((6-(3-(2-(4-((6-Acetyl-2,6-diazaspiro[3.3]heptan-2-yl)methyl)-3-methoxyphenyl)-3-chloropyridin-4-yl)-2-chlorophenyl)-1-methyl-1H-pyrrolo[2,3-b]pyridin-3-yl)methyl)amino)piperidin-1-yl)ethan-1-one] | 0.00146 µM | 0.26 µM |
| CNCc1ccc(-c2cccc(-c3ccnc(-c4cc(CNC56CC(C(=O)O)(C5)C6)cc(OC)c4)c3Cl)c2Cl)nc1OC [Compound 174, 3-((3-(3-chloro-4-(2-chloro-3-(6-methoxy-5-((methylamino)methyl)pyridine-2-yl)phenyl)pyridine-2-yl)-5-methoxybenzyl)amino)bicyclo[1.1.1]pentane-1-carboxylic acid] | 0.0236 µM | ≥ 10 µM |
| COc1nc(-c2cccc(-c3nccc(-c4ccc(CN5CC[C@H](O)C5)c(OC)n4)c3Cl)c2Cl)ccc1CN1CC[C@H](O)C1 [Example 773, (S)-1-((3′-Chloro-2′-(2-chloro-3-(5-(((S)-3-hydroxypyrrolidin-1-yl)methyl)-6-methoxypyridin-2-yl)phenyl)-6-methoxy-[2,4′-bipyridin]-5-yl)methyl)pyrrolidin-3-ol] | 0.00103 µM | 0.0106 µM |
| COc1nc(-c2cccc(-c3ccnc(-c4cc(OC)c5nc(CN6CC7(CNC(=O)C7)C6)cn5c4)c3Cl)c2Cl)ccc1CNC[C@@H]1CCC(=O)N1 [Example 314, (S)-2-((6-(3-Chloro-4-(2-chloro-3-(6-methoxy-5-((((5-oxopyrrolidin-2-yl)methyl)amino)methyl)pyridin-2-yl)phenyl)pyridin-2-yl)-8-methoxyimidazo[1,2-a]pyridin-2-yl)methyl)-2,6-diazaspiro[3.4]octan-7-one] | 0.00163 µM | 0.0692 µM |
| COCC1CCN(Cc2ccc(-c3nccc(-c4cccc(-c5ccc(CNC6CCN(C(C)=O)CC6)c(OC)n5)c4Cl)c3Cl)cc2OC)CC1 [Example 509, 1-(4-(((6-(2-Chloro-3-(3-chloro-2-(3-methoxy-4-((4-(methoxymethyl)piperidin-1-yl)methyl)phenyl)pyridin-4-yl)phenyl)-2-methoxypyridin-3-yl)methyl)amino)piperidin-1-yl)ethan-1-one] | 0.00977 µM | 0.1 µM |
| COc1nc(-c2cccc(-c3ccnc(-c4cc(Cl)c5c(c4)CCN(CC4CCN(C(C)=O)CC4)C5)c3Cl)c2Cl)ccc1CNC[C@@H]1CCC(=O)N1 [Example 289, (S)-5-((((6-(3-(2-(2-((1-Acetylpiperidin-4-yl)methyl)-8-chloro-1,2,3,4-tetrahydroisoquinolin-6-yl)-3-chloropyridin-4-yl)-2-chlorophenyl)-2-methoxypyridin-3-yl)methyl)amino)methyl)pyrrolidin-2-one] | 0.00295 µM | 0.0876 µM |
| COc1cc(-c2nccc(-c3cccc(-c4ccc(CN5CC6(CCC(=O)N6)C5)c(OC)n4)c3Cl)c2Cl)cnc1CN1CC2(CCC(=O)N2)C1 [Compound 430, 2-((3-Chloro-4-(2-chloro-3-(6-methoxy-5-((6-oxo-2,5-diazaspiro[3.4]octan-2-yl)methyl)pyridin-2-yl)phenyl)-5′-methoxy-[2,3′-bipyridin]-6′-yl)methyl)-2,5-diazaspiro[3.4]octan-6-one] | 0.00035 µM | 0.0233 µM |
| COc1cc(-c2nccc(-c3cccc(-c4ccc5c(CNC6CCOCC6)cn(C)c5n4)c3Cl)c2Cl)ccc1CNCCO [Compound 606, 2-((4-(3-Chloro-4-(2-chloro-3-(1-methyl-3-(((tetrahydro-2H-pyran-4-yl)amino)methyl)-1H-pyrrolo[2,3-b]pyridin-6-yl)phenyl)pyridin-2-yl)-2-methoxybenzyl)amino)ethan-1-ol] | 0.00012 µM | 0.237 µM |
